Publication PMC4211885 (PLoS ONE, 2014)

Columns and labels:
OA/TAMac receptor = OA/TAMac receptor (Macrobrachium rosenbergii, UniProt D9U2B9); assay: Agonist-evoked direct-current (ID) in Xenopus oocytes injected with OA/TAMac cRNA, two-electrode voltage clamp; type: cell-based; conditions: for ID response amplitude (mean ± s.d.): 10 µM, 10 second focal application, OA/TAMac and CFTR co-injected, n = 11 oocytes; for EC50: voltage clamped at −60 mV, approximate, estimated graphically from plot, read-out: EC50 of transmitter evoked direct-current (ID), normalized I/Imax; for Spearman rank-order correlation (rS) between rise rate and peak amplitude of evoked ID: all responses of the concentration series of Figure 3C
Chain of OA/TAMac receptor (D9U2B9 entry or part of it): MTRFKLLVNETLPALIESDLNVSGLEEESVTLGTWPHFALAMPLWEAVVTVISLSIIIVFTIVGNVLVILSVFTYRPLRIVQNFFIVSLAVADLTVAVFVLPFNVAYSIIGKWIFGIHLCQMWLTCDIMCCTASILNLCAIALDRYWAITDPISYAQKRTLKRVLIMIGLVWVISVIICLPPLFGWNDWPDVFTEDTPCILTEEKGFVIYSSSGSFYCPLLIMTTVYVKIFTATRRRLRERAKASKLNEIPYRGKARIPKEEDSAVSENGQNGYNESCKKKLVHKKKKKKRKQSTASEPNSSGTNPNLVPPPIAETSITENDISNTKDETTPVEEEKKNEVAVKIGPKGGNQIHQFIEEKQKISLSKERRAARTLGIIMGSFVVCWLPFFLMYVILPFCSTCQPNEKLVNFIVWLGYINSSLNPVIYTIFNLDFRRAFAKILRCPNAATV
From the text: We used Xenopus oocytes to express the prawn OA/TAMac receptor by injection of synthetic cRNA. The injection of foreign RNA into Xenopus oocytes typically induces the expression of multiple native chloride and potassium channels. Ligand evoked currents resulting from modulation of these channels have been used extensively in the characterization of heterologously expressed GPCRs. Oocytes are typically voltage clamped at a constant membrane potential around −60 mV and deviations in holding potential are measured. We refer to currents measured in this way as direct-currents (ID) (after) in order to distinguish them from the voltage-evoked transient current (ICl-T) described later.
Both flow rate and pulse duration were precisely controlled and comparisons were made relative to currents within single oocytes.
To characterize the dose dependence of ID, series of single transmitters were applied to different individual oocytes injected with OA/TAMac. Oocytes were voltage clamped at −60 mV and tyramine, (+/−)-octopamine, or dopamine were applied using 30 second perfusion-switched applications (see methods for more details).
(§1) Recordings were performed 1–3 days post-injection at room temperature (20–22°C). Currents were recorded under two-electrode voltage clamp using an Axoclamp 900a amplifier (Molecular Devices LLC, CA USA). A digidata 1440a analog to digital converter was used in conjunction with pCLAMP 10 software (Molecular Devices) for data acquisition and to generate voltage commands. For each step protocol or chemical application data were typically sampled at 5 KHz and filtered digitally at 1 KHz. For the duration of each experiment the current was also continuously sampled at 1 kHz using a separate minidigi 1A digitizer (Molecular Devices). Glass microelectrodes were pulled from filamented 1.2 mm thin wall borosilicate glass (World Precision Instruments, Sarasota, FL) using a Sutter Instruments P-97 puller. They were filled with 3 M KCl and had resistances of 0.8–2.0 MΩ. A silver chloride pellet immersed in 3 M KCl and connected to the bath via a 3% agar bridge made with 3 M KCl was used as the reference electrode.
Oocytes were continuously perfused at 1.5 mL/min either with ND 96 or test compounds dissolved in ND 96. Two types of application were used over the course of this study, a perfusion-switch or a focal application. In all cases solutions were delivered through a gravity fed system and switched using a computer controlled bank of pinch valves. Flow rate was regulated with a manual screw-type pinch valve.
For focal application a triple barrel pipette with three parallel independently switched channels was positioned about 1 mm from the surface of the oocyte, up-stream of a cross flow, at an approximate angle of 45 degrees (schematic shown in Fig. S8). Drugs were focally applied during continuous perfusion with ND 96.
In experiments where more than three drugs or concentrations were tested a precisely controlled 30 s perfusion-switch was used. Up to eight channels were connected to the bath via an 8-way manifold. There was an approximately 6–7 s delay for solutions to traverse the dead volume between the manifold and the bath.

Uninjected oocytes = assay: Direct-current response of uninjected oocytes (control); type: cell-based, Xenopus laevis; conditions: n = 5
Method: We first tested receptor-injected oocytes for the occurrence of a response to biogenic amines. Applications of tyramine, octopamine, or dopamine produced an inward ID, typically ranging between 50 nA and 500 nA, under a constant holding potential of −60 mV. […] The amplitude of tyramine evoked ID at concentrations below 10 µM was greater than octopamine or dopamine within the same oocyte (Figs. 2A and S2). […] Instead it would rise and then begin to decline prior to the removal of agonist (dotted line). However, at high concentrations, above 100 µM, ID appeared to approach a stable plateau (Fig. 2B).
as §1
Supplementary file pone.0111314.s001.tif: Figure S1 Direct-current (ID) responses are specifically evoked by agonists in oocytes injected with OA/TAMac only. […] The trace is representative of an experimental set of 5 oocytes. Additional uninjected oocytes were tested with various experimental sets throughout the course of this study. (B) A typical preliminary test of agonist sensitivity. Injection of OA/TAMac cRNA alone is sufficient to confer sensitivity to OA. […] Applications are approximately 30 seconds in the upper trace. (C) The response of clonidine (CN), synephrine (SN), and OA within a single OA/TAMac injected oocyte. […] All drugs are applied for 30 seconds each as indicated by black rectangles. Agonist evoked currents are measured within oocytes relative to the octopamine response at 50 µM. The comparison is made to OA because the amplitude of the tyramine response becomes small at concentrations above 10 µM. This is due to a mechanistically undefined process not seen with any other agonist we tested. Note that TA is the first compound applied to a naïve oocyte in this example. […] (TIF) Click here for additional data file.

[1] = 30 second perfusion-switched applications, −60 mV

Row | Compound | ID response amplitude (mean ± s.d.) (OA/TAMac receptor; −60 mV) [nA] | Mean ID response amplitude in the agonist set (OA/TAMac receptor; 50 µM, 30 second perfusion-switch, n = 6, standard deviation 32 nA) [nA] | EC50 (OA/TAMac receptor; 30 second perfusion-switch) [µM] | Concentration at which evoked inward currents became visible/apparent (OA/TAMac receptor; [1]) | Spearman rank-order correlation (rS) between rise rate and peak amplitude of evoked ID (OA/TAMac receptor) | Response of uninjected oocytes (Uninjected oocytes) | Response of uninjected oocytes (Uninjected oocytes; listed as OA) | Concentration at which the response reached maximum amplitude (OA/TAMac receptor; [1]) | Response of uninjected oocytes (Uninjected oocytes; listed as TA)
1 | NCC(O)c1ccc(O)cc1 (racemic) [octopamine, (+/−)-octopamine] | 75±55 | 119 | ~21 | around 1 µM | 0.93 | no response | do not respond | – | –
2 | NCCc1ccc(O)cc1 [tyramine] | 229±152 | – | ~0.2 | around 0.1 µM | 0.52 | no response | – | around 10 µM | do not respond
